The values below come from patent US10463671B2, “Combination therapy for treating cancer” (Epizyme, Inc., priority 2013, dated 2019).

Marks after values point to notes of the source that are not given here.

Assay in all cases: Medium throughput combination proliferation assay (CellTiter-Glo, Chou-Talalay CI / potency shift)
One assay deals with SU-DHL-5 cells. To be noted: for IC50: Homo sapiens, SU-DHL-5, 72 h, read-out: Potency (IC50); for 1/α: combination with Compound 44.
The test system of the next assay is Toledo cells. The settings on record: for 1/α / IC50: Toledo; for 1/α: combination with Compound 44; for IC50: read-out: Potency (IC50), single agent, dosed for 5 days; for Summary of Combinations with Compound 44: Toledo (EZH2 WT GCB), drug combined with Compound 44.
In the next assay the test system is WSU-DLCL2 cells. To be noted: for IC50: Homo sapiens, WSUDLCL2, 72 h, read-out: Potency (IC50); for Summary of Combinations with Compound 44: WSU-DLCL2 (EZH2 Mutant GCB), drug combined with Compound 44.
In a further assay the test system is DOHH2 cells. To be noted: for 1/α: DOHH2, combination with Compound 44, data normalized to individual 6438 concentrations instead of DMSO; for IC50: read-out: Potency (IC50), DOHH-2 (GCB sub-type WT EZH2), single agent, after 3 days of dosing.
For another assay, the system named is SU-DHL-10 cells. To be noted: for IC50: read-out: Potency (IC50), SU-DHL-10 (GCB sub-type EZH2 Y646F), after 3 days of dosing; for Summary of Combinations with Compound 44: SU-DHL10 (EZH2 Mutant GCB), drug combined with Compound 44; for CI range (combination index): combination with Compound 44 at constant ratio, CI range above Fractional effect of 0.5.
The subject of the next assay is OCI-LY19 cells. To be noted: for IC50: Homo sapiens, OCI-LY19, 72 h, read-out: Potency (IC50); for 1/α: OCI-LY19, combination with Compound 44.
Another assay has as its system SU-DHL6 cells. It is filed as cell-based. To be noted: SU-DHL6 (EZH2 Mutant GCB); drug combined with Compound 44.

By IC50 is commonly meant the concentration at which inhibition is half-maximal. Regarding `C=CC(=O)N1CCC[C@@H](n2nc(-c3ccc(Oc4ccccc4)cc3)c3c(N)ncnc32)C1` [Ibrutinib], the IC50 with SU-DHL-5 cells was 1330 nM; in the assay on Toledo cells, > 10000 nM; with WSU-DLCL2 cells, 278 nM; in the assay with DOHH2 cells it was 956 nM; in the assay with SU-DHL-10 cells (single agent), 1150 nM; in the assay on OCI-LY19 cells, > 10000 nM. In addition, the 1/α result in the assay with Toledo cells was “No effect”; in the assay with DOHH2 cells, 0.67; with OCI-LY19 cells it was “No effect”.
On to `COc1cccc2c1C(=O)c1c(O)c3c(c(O)c1C2=O)C[C@@](O)(C(=O)CO)C[C@@H]3O[C@H]1C[C@H](N)[C@H](O)[C@H](C)O1` [Doxorubicin], for which the “Summary of Combinations with Compound 44” value in the assay on Toledo cells was “No effect”; in the assay on SU-DHL6 cells, “Additive”; in the assay on WSU-DLCL2 cells, “Synergy”; with DOHH2 cells (DOHH2 (EZH2 WT GCB), drug combined with Compound 44), “No effect”; with SU-DHL-10 cells, “Additive”. Besides, the “growth inhibition by the drug by itself” value with WSU-DLCL2 cells (WSU-DLCL2 (EZH2 mutant), single agent) is “concentration-dependent growth inhibition”; in the assay on SU-DHL-10 cells (SU-DHL10 (EZH2 mutant), single agent), “concentration-dependent growth inhibition”.
Consider `CO[C@H]1C[C@@H]2CC[C@@H](C)[C@@](O)(O2)C(=O)C(=O)N2CCCC[C@H]2C(=O)O[C@H]([C@H](C)C[C@@H]2CC[C@@H](OCCO)[C@H](OC)C2)CC(=O)[C@H](C)/C=C(\C)[C@@H](O)[C@@H](OC)C(=O)[C@H](C)C[C@H](C)/C=C/C=C/C=C/1C` [Everolimus], for which the IC50 in the assay on SU-DHL-5 cells is 0.72 nM; with Toledo cells it was 0.1 nM; with WSU-DLCL2 cells, 0.653 nM; in the assay on DOHH2 cells it was 0.13 nM; in the assay on SU-DHL-10 cells (single agent), 0.854 nM. Besides, the 1/α entry with Toledo cells and in the assay on OCI-LY19 cells was “No effect” in each case. Moreover, the “Summary of Combinations with Compound 44” value in the assay on WSU-DLCL2 cells and in the assay on SU-DHL-10 cells was “very strong synergy” throughout.
In the case of `COC1=CC(c2cc3ccccc3[nH]2)=N/C1=C\c1[nH]c(C)cc1C` [Obatoclax], the IC50 turned out to be 9.8 nM in the assay on SU-DHL-5 cells; 96 nM in the assay with Toledo cells; 59 nM in the assay with WSU-DLCL2 cells; 51 nM in the assay with DOHH2 cells; 19.5 nM with SU-DHL-10 cells (single agent); 42 nM in the assay on OCI-LY19 cells. The “CI range (combination index)” value in the assay with SU-DHL-5 cells (SU-DHL-5, combination with Compound 44 at constant ratio, CI range above Fractional effect of 0.5) is given as 1.26-1.61^e; in the assay on WSU-DLCL2 cells (WSU-DLCL2, combination with Compound 44 at constant ratio, CI range above Fractional effect of 0.5), 1.10^e; with SU-DHL-10 cells (SU-DHL-10) it was 0.91-1.36^e. Further, in the assay on OCI-LY19 cells, the 1/α turned out to be 1.50.
`CC[C@H](Nc1ncnc2[nH]cnc12)c1nc2cccc(F)c2c(=O)n1-c1ccccc1` [Idelalisib]: the half-inhibitory concentration (IC50) in the assay with SU-DHL-5 cells is 2590 nM; in the assay on Toledo cells it was 9800 nM; in the assay on WSU-DLCL2 cells, 2050 nM; with DOHH2 cells it was 2980 nM; in the assay on SU-DHL-10 cells (single agent) it was 8430 nM; in the assay with OCI-LY19 cells, > 10000 nM. Also, the figures for the 1/α in the assay on Toledo cells, with DOHH2 cells and in the assay with OCI-LY19 cells were 1.1^, 0.59 and “No effect”, respectively. The “Summary of Combinations with Compound 44” value with WSU-DLCL2 cells and with SU-DHL-10 cells was “very strong synergy” each time.
Take `COc1cc(Nc2ncc(F)c(Nc3ccc4c(n3)NC(=O)C(C)(C)O4)n2)cc(OC)c1OC` [Tamatinib]: the IC50 was 3760 nM in the assay on SU-DHL-5 cells; 3200 nM in the assay on Toledo cells; 3420 nM in the assay with WSU-DLCL2 cells; 1210 nM in the assay on DOHH2 cells; 2210 nM in the assay with SU-DHL-10 cells (single agent); > 10000 nM in the assay on OCI-LY19 cells. The 1/α entry in the assay with Toledo cells is on record as “No effect”; in the assay with DOHH2 cells, 0.81; in the assay with OCI-LY19 cells, “No effect”. Moreover, the “Summary of Combinations with Compound 44” value with WSU-DLCL2 cells and in the assay with SU-DHL-10 cells was “very strong synergy” in each case.
Consider `CC1(C)CCC(c2ccc(Cl)cc2)=C(CN2CCN(c3ccc(C(=O)NS(=O)(=O)c4ccc(N[C@H](CCN5CCOCC5)CSc5ccccc5)c(S(=O)(=O)C(F)(F)F)c4)cc3)CC2)C1` [Navitoclax], for which the IC50 is > 10000 nM in the assay with SU-DHL-5 cells; 590 nM in the assay with Toledo cells; 3540 nM with WSU-DLCL2 cells; 540 nM in the assay on DOHH2 cells; > 10000 nM in the assay with SU-DHL-10 cells (single agent); 131 nM in the assay with OCI-LY19 cells. Besides, the 1/α result in the assay with SU-DHL-5 cells (SU-DHL-5) is “No Effect”; in the assay on Toledo cells, “No effect”; with OCI-LY19 cells, 6.60.
Regarding “Rituximab: the antibody combined with chemotherapeutics in R-CHOP, targets cd-20”, the 1/α with WSU-DLCL2 cells (WSU-DLCL2, combination with Compound 44) amounted to 2.6. Also, the “Potency (IC50), Rituximab” value with WSU-DLCL2 cells (WSU-DLCL2, single agent, after 3 days of dosing) is >10^a μg/ml.
Take `CC(C)C[C@H](NC(=O)[C@H](Cc1ccccc1)NC(=O)c1cnccn1)B(O)O` [Bortezomib]: the half-inhibitory concentration (IC50) in the assay with SU-DHL-5 cells turned out to be 4 nM; with Toledo cells, 4.3 nM; with WSU-DLCL2 cells, 6.5 nM; in the assay with DOHH2 cells it was 6.6 nM; in the assay with SU-DHL-10 cells (single agent), 8.6 nM; in the assay on OCI-LY19 cells it was 12 nM. The results for the 1/α in the assay with Toledo cells, with DOHH2 cells and in the assay on OCI-LY19 cells were 0.96, 0.96 and 1.67, respectively.
Consider `CC1(C)CCC(CN2CCN(c3ccc(C(=O)NS(=O)(=O)c4ccc(NCC5CCOCC5)c([N+](=O)[O-])c4)c(Oc4cnc5[nH]ccc5c4)c3)CC2)=C(c2ccc(Cl)cc2)C1` [ABT-199], for which the IC50 with SU-DHL-5 cells was > 10000 nM; in the assay on Toledo cells, 190 nM; with WSU-DLCL2 cells, 1940 nM; with DOHH2 cells, 77 nM; in the assay with SU-DHL-10 cells (single agent), 3040 nM; with OCI-LY19 cells it was 53 nM. The 1/α entry in the assay with SU-DHL-5 cells (SU-DHL-5) is reported as “No Effect”; in the assay with OCI-LY19 cells, 4.20. The “CI range (combination index)” value in the assay on SU-DHL-10 cells (SU-DHL-10) is 1.2-1.4^e.
As for `CC(=O)Nc1cccc(-n2c(=O)n(C3CC3)c(=O)c3c(Nc4ccc(I)cc4F)n(C)c(=O)c(C)c32)c1` [Trametinib], the concentration for half-maximal inhibition (IC50) is > 10000 nM in the assay on SU-DHL-5 cells; > 10000 nM in the assay with Toledo cells; 8610 nM in the assay on WSU-DLCL2 cells; > 10000 nM in the assay on DOHH2 cells; > 10000 nM in the assay with SU-DHL-10 cells (single agent); > 10000 nM in the assay with OCI-LY19 cells. For the same compound, the 1/α entry with Toledo cells and in the assay with OCI-LY19 cells was “No effect” in each case.
In the case of `NC1(c2ccc(-c3nc4ccn5c(=O)[nH]nc5c4cc3-c3ccccc3)cc2)CCC1` [MK-2206], the concentration for half-maximal inhibition (IC50) in the assay on SU-DHL-5 cells amounted to 162 nM; in the assay with Toledo cells, 95 nM; in the assay with WSU-DLCL2 cells, 127 nM; with DOHH2 cells, 86 nM; with SU-DHL-10 cells (single agent), 275 nM; with OCI-LY19 cells it was 304 nM. In addition, the “Summary of Combinations with Compound 44” value in the assay with WSU-DLCL2 cells and with SU-DHL-10 cells was “very strong synergy” each time. Moreover, the 1/α in the assay on DOHH2 cells was 0.64; in the assay with OCI-LY19 cells, 71.40.
For the compound `C[C@@H]1C[C@H]2[C@@H]3CCC4=CC(=O)C=C[C@]4(C)[C@@]3(F)[C@@H](O)C[C@]2(C)[C@@]1(O)C(=O)CO` [Dexamethasone], the IC50 is 3.4 nM in the assay with SU-DHL-5 cells; > 100 nM with Toledo cells; > 10000 nM in the assay with WSU-DLCL2 cells; 5.6 nM in the assay with DOHH2 cells; > 100 nM with SU-DHL-10 cells (single agent); 79 nM with OCI-LY19 cells. Further, the “Summary of Combinations with Compound 44” value with Toledo cells is on record as “No effect”. Besides, the 1/α result in the assay with Toledo cells was “No effect”; with DOHH2 cells it was 4.2; with SU-DHL-10 cells (SU-DHL-10, combination with Compound 44), 3.7; in the assay on OCI-LY19 cells it was 7.7.
